Test results reported in ChEMBL document CHEMBL1201862, “PubChem BioAssay data set” (2004).
Calls of active or inactive are those of the source.

Columns and labels:
[1] = ADAM10 inhibitors, peptide cleavage, dose response, biochemical, QFRET (AID 743254);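 further: ADAM10 enzyme with the DM2 quenched FRET peptide as substrate; EDANS fluorescence gain as the protease cuts the substrate; inhibitor potency against ADAM10 proteolytic activity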
[2] = target: Disintegrin and metalloproteinase domain-containing protein 17 (Homo sapiens, UniProt P78536); assay: ADAM17 protease inhibitors, dose response, counter-screen for ADAM10 exosite inhibitor project, biochemical, quenched FRET substrate (AID 743253)
Chain of Disintegrin and metalloproteinase domain-containing protein 17 (P78536 whole entry, the tested form may be a part): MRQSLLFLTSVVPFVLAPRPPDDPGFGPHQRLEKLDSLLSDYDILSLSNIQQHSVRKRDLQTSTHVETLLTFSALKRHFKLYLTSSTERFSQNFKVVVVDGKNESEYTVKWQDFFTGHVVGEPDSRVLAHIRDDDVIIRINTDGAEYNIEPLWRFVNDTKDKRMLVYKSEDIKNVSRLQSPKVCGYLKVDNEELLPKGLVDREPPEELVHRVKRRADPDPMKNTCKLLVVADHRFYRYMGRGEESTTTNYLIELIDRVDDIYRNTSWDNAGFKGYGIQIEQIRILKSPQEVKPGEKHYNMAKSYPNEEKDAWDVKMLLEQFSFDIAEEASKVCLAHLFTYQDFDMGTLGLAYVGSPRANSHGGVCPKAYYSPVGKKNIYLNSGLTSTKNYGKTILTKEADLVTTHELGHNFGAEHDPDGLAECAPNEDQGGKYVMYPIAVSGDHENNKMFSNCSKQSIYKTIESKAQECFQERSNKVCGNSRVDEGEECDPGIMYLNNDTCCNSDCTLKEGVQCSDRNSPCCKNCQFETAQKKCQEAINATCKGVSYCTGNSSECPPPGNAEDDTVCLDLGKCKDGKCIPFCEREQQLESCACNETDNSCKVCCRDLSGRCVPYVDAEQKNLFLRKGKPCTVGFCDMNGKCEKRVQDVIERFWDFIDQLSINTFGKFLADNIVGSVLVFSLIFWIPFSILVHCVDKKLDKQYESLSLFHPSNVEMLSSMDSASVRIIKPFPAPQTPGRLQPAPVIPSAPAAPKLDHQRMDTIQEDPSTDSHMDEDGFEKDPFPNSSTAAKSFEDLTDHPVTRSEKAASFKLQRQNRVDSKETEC

[3] = HeLa 4N DNA content increase, dose response, cell-based, IC50 (AID 1117351); format: functional
[4] = cytotoxicity toward Colo320 cells – cell-based, CellTiter-Glo luminescence, IC50, dose response (AID 1117334); format: functional; settings: COLO 320
[5] = RKO cell viability reduction, dose response, CellTiter-Glo luminescence (AID 1117322); format: functional
[6] = SNU-C1 cell viability reduction, dose response, CellTiter-Glo luminescence (AID 1117323); format: functional, cell-based
[7] = Concentration-dependent survival of SW480 colon cancer line, luminescence detection with CellTiter-Glo, half-maximal inhibitory concentration (AID 1117338); format: functional
[8] = cytotoxicity toward HT-29 cells – cell-based, CellTiter-Glo luminescence, IC50, dose response (AID 1117330); format: functional
[9] = CellTiter-Glo luminescent dose response of DLD-1 viability loss (AID 1117352); format: functional
[10] = HCT116 cell viability decrease, GSK3B pretreatment – CellTiter-Glo, IC50, dose response (AID 1117339); format: functional; settings: HCT-116
[11] = cytotoxicity toward HCT116 cells – cell-based, CellTiter-Glo luminescence, IC50, dose response (AID 1117332); format: functional; settings: HCT-116
[12] = HeLa 2N DNA content increase, dose response, cell-based, IC50 (AID 1117349); format: functional
[13] = target: T1, Protein RecA (Mycobacterium tuberculosis, UniProt P9WHJ3); assay: Fluorescence Cell-Free Homogeneous Dose Retest to Identify Inhibitors of RecA-Intein Splicing Activity. [Related pubchem assays (depositor defined):AID2097, AID2223, AID489010, AID492950]; format: functional
T1 sequence (P9WHJ3 whole entry): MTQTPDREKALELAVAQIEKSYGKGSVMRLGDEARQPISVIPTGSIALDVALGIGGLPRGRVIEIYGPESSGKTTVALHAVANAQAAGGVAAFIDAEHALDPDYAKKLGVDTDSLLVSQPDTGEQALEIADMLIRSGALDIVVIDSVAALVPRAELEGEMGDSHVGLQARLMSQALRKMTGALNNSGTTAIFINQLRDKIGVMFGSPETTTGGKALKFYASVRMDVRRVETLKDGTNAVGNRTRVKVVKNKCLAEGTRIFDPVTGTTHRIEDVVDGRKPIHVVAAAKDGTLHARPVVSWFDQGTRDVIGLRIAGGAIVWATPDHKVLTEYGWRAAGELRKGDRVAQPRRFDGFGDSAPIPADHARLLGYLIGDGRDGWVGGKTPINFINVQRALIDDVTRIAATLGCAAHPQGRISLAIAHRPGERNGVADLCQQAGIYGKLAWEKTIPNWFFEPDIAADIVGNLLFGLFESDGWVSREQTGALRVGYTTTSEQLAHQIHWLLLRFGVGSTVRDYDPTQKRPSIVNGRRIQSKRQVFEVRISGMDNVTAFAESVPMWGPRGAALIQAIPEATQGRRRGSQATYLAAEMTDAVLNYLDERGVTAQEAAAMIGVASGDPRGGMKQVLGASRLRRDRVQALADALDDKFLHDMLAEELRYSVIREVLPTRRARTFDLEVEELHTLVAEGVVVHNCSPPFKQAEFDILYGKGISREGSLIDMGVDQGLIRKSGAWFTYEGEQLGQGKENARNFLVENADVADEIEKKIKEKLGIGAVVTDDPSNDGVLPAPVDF

[14] = target: T2, fMet-Leu-Phe receptor (Homo sapiens, UniProt P21462); assay: FPR ligands, dose response (AID 519); format: functional
T2 sequence (P21462 whole entry): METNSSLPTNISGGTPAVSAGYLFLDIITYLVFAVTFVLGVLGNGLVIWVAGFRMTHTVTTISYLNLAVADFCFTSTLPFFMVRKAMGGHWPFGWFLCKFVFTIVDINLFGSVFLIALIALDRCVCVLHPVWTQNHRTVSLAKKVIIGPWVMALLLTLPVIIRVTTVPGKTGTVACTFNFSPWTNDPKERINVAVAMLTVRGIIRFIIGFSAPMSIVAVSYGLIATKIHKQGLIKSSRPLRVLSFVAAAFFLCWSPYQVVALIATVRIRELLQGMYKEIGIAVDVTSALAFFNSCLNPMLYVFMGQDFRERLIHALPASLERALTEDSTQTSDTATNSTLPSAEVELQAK

[15] = target: T3, Replicative DNA helicase DnaB (Mycobacterium tuberculosis, UniProt P9WMR3); assay: DnaB intein splicing inhibitors, dose response, biochemical, cell-free fluorescence (AID 449749); format: functional
T3 sequence (P9WMR3 whole entry): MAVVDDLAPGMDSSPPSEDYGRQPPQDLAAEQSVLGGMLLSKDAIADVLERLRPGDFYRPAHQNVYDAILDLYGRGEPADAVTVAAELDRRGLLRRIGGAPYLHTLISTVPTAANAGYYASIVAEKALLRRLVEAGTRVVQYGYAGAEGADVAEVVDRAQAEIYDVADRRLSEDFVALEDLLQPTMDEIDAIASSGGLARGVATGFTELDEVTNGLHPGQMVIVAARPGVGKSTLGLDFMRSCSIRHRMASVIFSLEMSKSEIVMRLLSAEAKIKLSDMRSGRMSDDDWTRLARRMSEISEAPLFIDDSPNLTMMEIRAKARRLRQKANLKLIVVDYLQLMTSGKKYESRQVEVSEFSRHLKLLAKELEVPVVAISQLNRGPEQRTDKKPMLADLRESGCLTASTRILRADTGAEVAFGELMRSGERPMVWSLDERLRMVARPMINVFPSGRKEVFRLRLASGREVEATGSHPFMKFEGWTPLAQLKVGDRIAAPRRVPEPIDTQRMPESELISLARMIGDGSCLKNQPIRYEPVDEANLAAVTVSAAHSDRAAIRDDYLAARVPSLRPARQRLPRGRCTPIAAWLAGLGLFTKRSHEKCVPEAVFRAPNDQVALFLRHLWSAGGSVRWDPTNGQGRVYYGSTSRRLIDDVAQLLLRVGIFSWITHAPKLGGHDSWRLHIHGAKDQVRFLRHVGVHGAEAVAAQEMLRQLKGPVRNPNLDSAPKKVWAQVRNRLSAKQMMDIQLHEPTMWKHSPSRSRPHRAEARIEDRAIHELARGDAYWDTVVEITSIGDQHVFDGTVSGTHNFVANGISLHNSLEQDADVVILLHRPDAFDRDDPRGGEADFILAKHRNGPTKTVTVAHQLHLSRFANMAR

[16] = target: T4, Fructose-bisphosphate aldolase (Mycobacterium tuberculosis, UniProt P9WQA3); assay: Fluorescence-based biochemical high throughput dose response assay for inhibitors of the fructose-bisphosphate aldolase (FBA) of M. tuberculosis.; format: functional
T4 sequence (P9WQA3 whole entry): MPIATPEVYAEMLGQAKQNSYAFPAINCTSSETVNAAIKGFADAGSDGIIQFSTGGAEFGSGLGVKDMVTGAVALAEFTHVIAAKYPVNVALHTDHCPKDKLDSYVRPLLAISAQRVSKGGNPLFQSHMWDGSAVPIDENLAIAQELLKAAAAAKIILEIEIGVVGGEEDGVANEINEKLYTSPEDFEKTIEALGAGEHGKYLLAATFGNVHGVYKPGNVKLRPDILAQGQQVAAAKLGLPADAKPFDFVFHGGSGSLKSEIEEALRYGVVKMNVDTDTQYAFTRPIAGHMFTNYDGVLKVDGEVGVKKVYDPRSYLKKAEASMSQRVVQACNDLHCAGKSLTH

[17] = target: T5, Mannose-6-phosphate isomerase (Homo sapiens, UniProt P34949); assay: human PMI inhibitors, high substrate, primary screen, biochemical, fluorescence intensity, high mannose 6-phosphate (AID 1220)
T5 sequence (P34949 whole entry): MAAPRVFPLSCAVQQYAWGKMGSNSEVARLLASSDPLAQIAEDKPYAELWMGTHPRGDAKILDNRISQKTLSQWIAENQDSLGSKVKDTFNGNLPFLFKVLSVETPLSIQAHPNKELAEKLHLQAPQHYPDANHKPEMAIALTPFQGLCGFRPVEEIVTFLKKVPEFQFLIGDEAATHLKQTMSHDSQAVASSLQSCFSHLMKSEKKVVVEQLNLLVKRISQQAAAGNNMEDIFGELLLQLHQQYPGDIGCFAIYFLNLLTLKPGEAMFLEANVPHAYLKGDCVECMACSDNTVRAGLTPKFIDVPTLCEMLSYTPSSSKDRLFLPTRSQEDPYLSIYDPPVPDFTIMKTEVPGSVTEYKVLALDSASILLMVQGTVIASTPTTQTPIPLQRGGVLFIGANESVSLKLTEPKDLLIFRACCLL

[18] = target: T5, Mannose-6-phosphate isomerase; assay: inhibitors of human PMI, primary screen, biochemical, fluorescence intensity, coupled assay (AID 1209)

C=CC[C@@H](CC(=O)N(CCO)Cc1ccccc1)C(=O)N[C@H](COC(=O)[C@@H](CC=C)Cc1ccc(F)cc1)Cc1c[nH]c2ccccc12
IC50 [1]: > 69.5 µM (inactive)
IC50 [2]: > 69.5 µM (inactive)

CCc1ccc(/C=c2\s/c(=C\C(=O)C(C)(C)C)[nH]c2=O)cc1
IC50 [1]: > 69.5 µM (inactive)
IC50 [2]: > 69.5 µM (inactive)

O[C@@H](CNC[C@H](O)[C@H]1CCc2cc(F)ccc2O1)[C@@H]1CCc2cc(F)ccc2O1
IC50 [3]: > 10 µM (inactive)
IC50 [4]: > 20 µM (inactive)
IC50 [5]: 3.28 µM (active)
IC50 [6]: 5.09 µM (inactive)
IC50 [7]: 3.6 µM (active)
IC50 [8]: 4.5 µM (active)
IC50 [9]: 15.3 µM (inactive)
IC50 [10]: 2.4 µM (active)
IC50 [11]: 6.48 µM (inactive)
IC50 [12]: > 10 µM (inactive)

COc1ccccc1-c1c(C)oc2cc(OC(=O)c3ccco3)ccc2c1=O
EC50 [13]: 23.8 µM (active)
Ki [14]: 9 µM (active)
AC50 [15]: 21.8 µM (active)
IC50 [16]: 1.55 µM (active)

CCOc1ccc(/C=N/c2cccc3ncccc23)cc1
IC50 [17]: > 50 µM (not active)
IC50 [18]: > 50 µM (not active)

Cc1ccccc1C(=O)Nc1ccc(C(=O)N2CCCC(N(C)C)c3ccccc32)cc1 (configuration not stated) [MOZAVAPTAN]
IC50 [3]: > 10 µM (inactive)
IC50 [12]: > 10 µM (inactive)
